Key:
Assay in all cases: relative viability (nuclei count vs DMSO), 5 days (fraction); higher = more cells survive
[1] = system: LCLC-103H
Outline: (§1)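 Relative viability divides the nuclei count in treated wells by that in vehicle wells. Lung cancer cell lines were seeded in 1536-well plates, dosed by pin tool the next day, and fixed and stained after 5 days in one step with final 0.05% Triton X-100, 1% formaldehyde and 1 ug/ml Hoechst. Dosing was a single drug or a fixed anchor-drug dose plus five library-drug doses (not always all listed) in √10 steps, and values are medians of duplicate plates imaged at 4×.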

[2] = system: HCC-15
Outline: as §1

[3] = system: PC-14
Outline: as §1

[4] = system: NCI-H661
Outline: as §1

[5] = system: NCI-H1437
Outline: as §1

[6] = system: H3255
Outline: as §1

[7] = system: UMC-11
Outline: as §1

[8] = system: LXF-289
Outline: as §1

[9] = system: HCC-366
Outline: as §1

[10] = system: SK-MES-1
Outline: as §1

[11] = system: NCI-H2085
Outline: as §1

[12] = system: NCI-H1666
Outline: as §1

[13] = system: ABC-1
Outline: as §1

[14] = system: COR-L23
Outline: as §1

[15] = system: NCI-H2009
Outline: as §1

[16] = system: HCC-827
Outline: as §1

[17] = system: NCI-H1975
Outline: as §1

[18] = system: PC-3 [JPC-3]
Outline: as §1

[19] = system: NCI-H23
Outline: as §1

[20] = system: LC-2-ad
Outline: as §1

[21] = system: NCI-H2087
Outline: as §1

[22] = system: NCI-H2342
Outline: as §1

Compound: CCNC(=O)c1noc(-c2cc(C(C)C)c(O)cc2O)c1-c1ccc(CN2CCOCC2)cc1 [Luminespib] + Nc1ncn([C@H]2C[C@H](O)[C@@H](CO)O2)c(=O)n1 [Decitabine] (partner 2 µM)
- relative viability ([1]; first compound 0.002 µM): 0.732
- relative viability ([1]; first compound 0.006325 µM): 0.702
- relative viability ([1]; first compound 0.02 µM): 0.721
- relative viability ([1]; first compound 0.06325 µM): 0.74
- relative viability ([1]; first compound 0.2 µM): 0.691
- relative viability ([2]; first compound 0.002 µM): 0.695
- relative viability ([2]; first compound 0.006325 µM): 0.565
- relative viability ([2]; first compound 0.02 µM): 0.73
- relative viability ([2]; first compound 0.06325 µM): 0.144
- relative viability ([2]; first compound 0.2 µM): 0.14
- relative viability ([3]; first compound 0.002 µM): 0.23
- relative viability ([3]; first compound 0.006325 µM): 0.21
- relative viability ([3]; first compound 0.02 µM): 0.123
- relative viability ([3]; first compound 0.06325 µM): 0.076
- relative viability ([3]; first compound 0.2 µM): 0.0786
- relative viability ([4]; first compound 0.002 µM): 0.554
- relative viability ([4]; first compound 0.006325 µM): 0.544
- relative viability ([4]; first compound 0.02 µM): 0.454
- relative viability ([4]; first compound 0.06325 µM): 0.315
- relative viability ([4]; first compound 0.2 µM): 0.309
- relative viability ([5]; first compound 0.002 µM): 0.606
- relative viability ([5]; first compound 0.006325 µM): 0.605
- relative viability ([5]; first compound 0.02 µM): 0.64
- relative viability ([5]; first compound 0.06325 µM): 0.428
- relative viability ([5]; first compound 0.2 µM): 0.229
- relative viability ([6]; first compound 0.002 µM): 0.639
- relative viability ([6]; first compound 0.02 µM): 0.446
- relative viability ([6]; first compound 0.06325 µM): 0.425
- relative viability ([6]; first compound 0.2 µM): 0.222
- relative viability ([7]; first compound 0.002 µM): 0.604
- relative viability ([7]; first compound 0.006325 µM): 0.569
- relative viability ([7]; first compound 0.02 µM): 0.334
- relative viability ([7]; first compound 0.06325 µM): 0.56
- relative viability ([7]; first compound 0.2 µM): 0.23
- relative viability ([8]; first compound 0.002 µM): 0.397
- relative viability ([8]; first compound 0.006325 µM): 0.354
- relative viability ([8]; first compound 0.02 µM): 0.424
- relative viability ([8]; first compound 0.06325 µM): 0.392
- relative viability ([8]; first compound 0.2 µM): 0.367
- relative viability ([9]; first compound 0.002 µM): 0.327
- relative viability ([9]; first compound 0.006325 µM): 0.359
- relative viability ([9]; first compound 0.02 µM): 0.31
- relative viability ([9]; first compound 0.06325 µM): 0.0527
- relative viability ([9]; first compound 0.2 µM): 0.038
- relative viability ([10]; first compound 0.002 µM): 0.392
- relative viability ([10]; first compound 0.006325 µM): 0.385
- relative viability ([10]; first compound 0.02 µM): 0.213
- relative viability ([10]; first compound 0.06325 µM): 0.146
- relative viability ([10]; first compound 0.2 µM): 0.147
- relative viability ([11]; first compound 0.002 µM): 0.547
- relative viability ([11]; first compound 0.006325 µM): 0.577
- relative viability ([11]; first compound 0.02 µM): 0.519
- relative viability ([11]; first compound 0.06325 µM): 0.486
- relative viability ([11]; first compound 0.2 µM): 0.346
- relative viability ([12]; first compound 0.002 µM): 0.701
- relative viability ([12]; first compound 0.006325 µM): 0.676
- relative viability ([12]; first compound 0.02 µM): 0.715
- relative viability ([12]; first compound 0.06325 µM): 0.71
- relative viability ([12]; first compound 0.2 µM): 0.544
- relative viability ([13]; first compound 0.002 µM): 1.19
- relative viability ([13]; first compound 0.006325 µM): 1.18
- relative viability ([13]; first compound 0.02 µM): 1.16
- relative viability ([13]; first compound 0.06325 µM): 0.755
- relative viability ([13]; first compound 0.2 µM): 0.344
- relative viability ([14]; first compound 0.002 µM): 0.502
- relative viability ([14]; first compound 0.006325 µM): 0.374
- relative viability ([14]; first compound 0.02 µM): 0.353
- relative viability ([14]; first compound 0.06325 µM): 0.0888
- relative viability ([14]; first compound 0.2 µM): 0.0903
- relative viability ([15]; first compound 0.002 µM): 0.405
- relative viability ([15]; first compound 0.006325 µM): 0.364
- relative viability ([15]; first compound 0.02 µM): 0.368
- relative viability ([15]; first compound 0.06325 µM): 0.187
- relative viability ([15]; first compound 0.2 µM): 0.135
- relative viability ([16]; first compound 0.002 µM): 0.36
- relative viability ([16]; first compound 0.006325 µM): 0.333
- relative viability ([16]; first compound 0.02 µM): 0.285
- relative viability ([16]; first compound 0.06325 µM): 0.166
- relative viability ([16]; first compound 0.2 µM): 0.147
- relative viability ([17]; first compound 0.002 µM): 0.393
- relative viability ([17]; first compound 0.006325 µM): 0.346
- relative viability ([17]; first compound 0.02 µM): 0.355
- relative viability ([17]; first compound 0.06325 µM): 0.127
- relative viability ([17]; first compound 0.2 µM): 0.144
- relative viability ([18]; first compound 0.002 µM): 0.888
- relative viability ([18]; first compound 0.006325 µM): 0.842
- relative viability ([18]; first compound 0.02 µM): 0.705
- relative viability ([18]; first compound 0.06325 µM): 0.397
- relative viability ([18]; first compound 0.2 µM): 0.506
- relative viability ([19]; first compound 0.002 µM): 0.285
- relative viability ([19]; first compound 0.006325 µM): 0.346
- relative viability ([19]; first compound 0.02 µM): 0.265
- relative viability ([19]; first compound 0.06325 µM): 0.164
- relative viability ([19]; first compound 0.2 µM): 0.164
- relative viability ([20]; first compound 0.002 µM): 0.886
- relative viability ([20]; first compound 0.006325 µM): 0.766
- relative viability ([20]; first compound 0.02 µM): 0.754
- relative viability ([20]; first compound 0.06325 µM): 0.778
- relative viability ([20]; first compound 0.2 µM): 0.786
- relative viability ([21]; first compound 0.002 µM): 0.25
- relative viability ([21]; first compound 0.006325 µM): 0.235
- relative viability ([21]; first compound 0.02 µM): 0.189
- relative viability ([21]; first compound 0.06325 µM): 0.145
- relative viability ([21]; first compound 0.2 µM): 0.101
- relative viability ([22]; first compound 0.002 µM): 0.648
- relative viability ([22]; first compound 0.006325 µM): 0.82
- relative viability ([22]; first compound 0.02 µM): 0.546
- relative viability ([22]; first compound 0.06325 µM): 0.821
- relative viability ([22]; first compound 0.2 µM): 0.503

Reference: the supplement of paper PMC10307832
